Assay results: patent publication US10934283B2, “COMT inhibiting methods and compositions” (LIEBER INSTITUTE FOR BRAIN DEVELOPMENT, priority 2015, dated 2021)

These molecules were tested against T1, catechol-O-methyltransferase (COMT) (Homo sapiens, UniProt P21964) (assay: COMT inhibition assay (HTRF, production of SAH from SAM)). Settings: table does not say MB-COMT or S-COMT.
T1 construct: M51A variant) was expressed in HEK 293F cells
T1 sequence (P21964 52-271 limits assumed): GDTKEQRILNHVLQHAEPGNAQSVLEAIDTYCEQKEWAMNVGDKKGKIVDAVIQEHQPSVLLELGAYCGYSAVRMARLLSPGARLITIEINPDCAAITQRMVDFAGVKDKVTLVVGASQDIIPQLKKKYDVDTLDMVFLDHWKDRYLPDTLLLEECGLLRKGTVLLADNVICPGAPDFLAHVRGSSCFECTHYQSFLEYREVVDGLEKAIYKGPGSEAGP
Type: biochemical
Protocol: The ability of compounds to inhibit the activity of catechol-O-methyltransferase (COMT) was determined by a homogenous time-resolved fluorescent (HTRF) assay (Lina et al, 2012; kit from CisBio, Codolet, France). This assay measures the production of S-adenosyl homocysteine (SAH) from the methyl donor S-adenosyl methionine. Recombinant human membrane bound COMT (MB-COMT; M51A variant) was expressed in HEK 293F cells using 293Fectin (Life Technologies, Gent, Belgium) and membranes prepared. The membranes were re-suspended in buffer (20 mM Tris/HCl pH 7; 10 mM glycerol; 2 mM MgCl2; 10 mM NaCl), aliquoted and stored at −80° C. Recombinant human soluble COMT(S-COMT), Val158 variant and a hexa-His tag on the N-terminus, was purified using Ni-NTA chromatography, the His tag removed and stored in buffer as above.
For the human MB-COMT assay, membranes (62 ng/well) were incubated with SAM (20 μM final, CisBio) and dopamine (1.5 μM final; Sigma H8502, Diegem, Belgium) in the presence or absence of varying concentrations (typically 10 concentrations ranging from 10 ? M to 0.1 nM) of compound for 40 min at 37° C. in 384-well microtiter plates (10 ? l per well final volume). The reaction was terminated by the addition of acylation buffer and the amount of SAH produced determined according to manufacturer's instructions. Specific inhibition as that inhibited by a high concentration of tolcapone and all experiments were validated using a control curve to tolcapone.
The human S-COMT assay was performed as above except that 0.15 ng enzyme/well was incubated with SAM ([…]) and dopamine (100 μM final) for 15 min at 37° C. and SAH production determined.
HTRF readings were performed using a Perkin Elmer Envision and results expressed as concentration of SAH produced using a standard curve. Results were analyzed using non-linear regression to the 4-parameter logistic equation and pIC50 (−log 10 concentration of drug which inhibits enzyme activity/SAH production by 50%) determined.

Compound | Activity range (pIC50)
CCc1ccc(CN2CCn3cc(O)c(=O)cc3[C@H]2c2ccccc2)cc1 (single isomer, unassigned) [Example 118] | +++ (three plus signs (+++) is associated with a pIC50 of above about 7)
CCc1ccc(CN2CCn3cc(O)c(=O)cc3[C@@H]2c2ccccc2)cc1 (single isomer, unassigned) [Example 119] | +++ (three plus signs (+++) is associated with a pIC50 of above about 7)
O=c1cc2n(cc1O)CCN(Cc1ccccc1)C2 [Example 1, 2-benzyl-7-hydroxy-1,2,3,4-tetrahydro-8H-pyrido[1,2-a]pyrazin-8-one] | ++ (two plus signs (++) is associated with a pIC50 of from about 6 to 7)
O=c1cc2n(cc1O)CCN(Cc1ccc(C(F)(F)F)cc1)C2 [Example 2, 7-hydroxy-2-[4-(trifluoromethyl)benzyl]-1,2,3,4-tetrahydro-8H-pyrido[1,2-a]pyrazin-8-one] | ++ (two plus signs (++) is associated with a pIC50 of from about 6 to 7)
O=c1cc2n(cc1O)CCN(Cc1ccc(F)cc1)C2 [Example 3, 2-[(4-fluorophenyl)methyl]-7-hydroxy-3,4-dihydro-1H-pyrido[1,2-a]pyrazin-8-one] | + (a single plus (+) is associated with a pIC50 of from about 4.5 to 6)
O=c1cc2n(cc1O)CCN(CCn1nnc3ccccc31)C2 [Example 4, 2-[2-(benzotriazol-1-yl)ethyl]-7-hydroxy-3,4-dihydro-1H-pyrido[1,2-a]pyrazin-8-one] | + (a single plus (+) is associated with a pIC50 of from about 4.5 to 6)
O=c1cc2n(cc1O)CCN(CCn1nc3ccccc3n1)C2 [Example 5, 2-[2-(benzotriazol-2-yl)ethyl]-7-hydroxy-3,4-dihydro-1H-pyrido[1,2-a]pyrazin-8-one] | + (a single plus (+) is associated with a pIC50 of from about 4.5 to 6)
O=c1cc2n(cc1O)CCN(Cc1cccc(OC(F)(F)F)c1)C2 [Example 6, 7-hydroxy-2-[3-(trifluoromethoxy)benzyl]-1,2,3,4-tetrahydro-8H-pyrido[1,2-a]pyrazin-8-one] | +++ (three plus signs (+++) is associated with a pIC50 of above about 7)
CC(C)(C)c1ccc(CN2CCn3cc(O)c(=O)cc3C2)cc1 [Example 7, 2-(4-tert-butylbenzyl)-7-hydroxy-1,2,3,4-tetrahydro-8H-pyrido[1,2-a]pyrazin-8-one] | +++ (three plus signs (+++) is associated with a pIC50 of above about 7)
O=c1cc2n(cc1O)CCN(Cc1ccc(OC(F)(F)F)cc1)C2 [Example 8, 7-hydroxy-2-[4-(trifluoromethoxy)benzyl]-1,2,3,4-tetrahydro-8H-pyrido[1,2-a]pyrazin-8-one] | +++ (three plus signs (+++) is associated with a pIC50 of above about 7)
Cc1ccc(CN2CCn3cc(O)c(=O)cc3C2)c(C)c1 [Example 9, 2-(2,4-dimethylbenzyl)-7-hydroxy-1,2,3,4-tetrahydro-8H-pyrido[1,2-a]pyrazin-8-one] | +++ (three plus signs (+++) is associated with a pIC50 of above about 7)
CC(C)c1ccc(CN2CCn3cc(O)c(=O)cc3C2)cc1 [Example 10, 7-hydroxy-2-[4-(propan-2-yl)benzyl]-1,2,3,4-tetrahydro-8H-pyrido[1,2-a]pyrazin-8-one] | +++ (three plus signs (+++) is associated with a pIC50 of above about 7)
O=c1cc2n(cc1O)CCN(Cc1ccccn1)C2 [Example 11, 7-hydroxy-2-(pyridin-2-ylmethyl)-1,2,3,4-tetrahydro-8H-pyrido[1,2-a]pyrazin-8-one] | ++ (two plus signs (++) is associated with a pIC50 of from about 6 to 7)
O=c1cc2n(cc1O)CCN(Cc1ccc(-c3cccnc3)cc1)C2 [Example 12, 7-hydroxy-2-[4-(pyridin-3-yl)benzyl]-1,2,3,4-tetrahydro-8H-pyrido[1,2-a]pyrazin-8-one] | ++ (two plus signs (++) is associated with a pIC50 of from about 6 to 7)
CCc1ccc(CN2CCn3cc(O)c(=O)cc3C2)cc1 [Example 13, 2-(4-ethylbenzyl)-7-hydroxy-1,2,3,4-tetrahydro-8H-pyrido[1,2-a]pyrazin-8-one] | +++ (three plus signs (+++) is associated with a pIC50 of above about 7)
O=c1cc2n(cc1O)CCN(Cc1cccc3cccnc13)C2 [Example 14, 7-hydroxy-2-(quinolin-8-ylmethyl)-1,2,3,4-tetrahydro-8H-pyrido[1,2-a]pyrazin-8-one] | +++ (three plus signs (+++) is associated with a pIC50 of above about 7)
CC(c1ccccc1)N1CCn2cc(O)c(=O)cc2C1 (centres unmarked) [Example 15, 7-hydroxy-2-(1-phenylethyl)-1,2,3,4-tetrahydro-8H-pyrido[1,2-a]pyrazin-8-one] | ++ (two plus signs (++) is associated with a pIC50 of from about 6 to 7)
CCc1ccc(C(C)N2CCn3cc(O)c(=O)cc3C2)cc1 (centres unmarked) [Example 16, 2-[1-(4-ethylphenyl)ethyl]-7-hydroxy-1,2,3,4-tetrahydro-8H-pyrido[1,2-a]pyrazin-8-one] | +++ (three plus signs (+++) is associated with a pIC50 of above about 7)
N#Cc1ccccc1CN1CCn2cc(O)c(=O)cc2C1 [Example 17, 2-[(7-hydroxy-8-oxo-1,3,4,8-tetrahydro-2H-pyrido[1,2-a]pyrazin-2-yl)methyl]benzonitrile] | ++ (two plus signs (++) is associated with a pIC50 of from about 6 to 7)
CCc1ccc(CN2CCn3cc(O)c(=O)cc3C2)cc1[N+](=O)[O-] [Example 18, 2-(4-ethyl-3-nitrobenzyl)-7-hydroxy-1,2,3,4-tetrahydro-8H-pyrido[1,2-a]pyrazin-8-one] | +++ (three plus signs (+++) is associated with a pIC50 of above about 7)
O=c1cc2n(cc1O)CCN(CC(c1ccccc1)c1ccccc1)C2 [Example 19, 2-(2,2-diphenylethyl)-7-hydroxy-1,2,3,4-tetrahydro-8H-pyrido[1,2-a]pyrazin-8-one] | ++ (two plus signs (++) is associated with a pIC50 of from about 6 to 7)
CCC(CC)CN1CCn2cc(O)c(=O)cc2C1 [Example 20, 2-(2-ethylbutyl)-7-hydroxy-1,2,3,4-tetrahydro-8H-pyrido[1,2-a]pyrazin-8-one] | ++ (two plus signs (++) is associated with a pIC50 of from about 6 to 7)
O=c1cc2n(cc1O)CCN(Cc1cc(Cl)cc(Cl)c1)C2 [Example 21, 2-(3,5-dichlorobenzyl)-7-hydroxy-1,2,3,4-tetrahydro-8H-pyrido[1,2-a]pyrazin-8-one] | +++ (three plus signs (+++) is associated with a pIC50 of above about 7)
O=c1cc2n(cc1O)CCN(CC1CCCCC1)C2 [Example 22, 2-(cyclohexylmethyl)-7-hydroxy-1,2,3,4-tetrahydro-8H-pyrido[1,2-a]pyrazin-8-one] | ++ (two plus signs (++) is associated with a pIC50 of from about 6 to 7)
O=c1cc2n(cc1O)CCN(Cc1ccc(C3CC3)cc1)C2 [Example 23, 2-(4-cyclopropylbenzyl)-7-hydroxy-1,2,3,4-tetrahydro-8H-pyrido[1,2-a]pyrazin-8-one] | +++ (three plus signs (+++) is associated with a pIC50 of above about 7)
CC1(C)CCCC2=C1CC(CN1CCn3cc(O)c(=O)cc3C1)CC2 (centres unmarked) [Example 24, 2-[(8,8-dimethyl-1,2,3,4,5,6,7,8-octahydronaphthalen-2-yl)methyl]-7-hydroxy-1,2,3,4-tetrahydro-8H-pyrido[1,2-a]pyrazin-8-one] | +++ (three plus signs (+++) is associated with a pIC50 of above about 7)
O=c1cc2n(cc1O)CCN(Cc1ccc(Cl)c(Cl)c1)C2 [Example 25, 2-(3,4-dichlorobenzyl)-7-hydroxy-1,2,3,4-tetrahydro-8H-pyrido[1,2-a]pyrazin-8-one] | +++ (three plus signs (+++) is associated with a pIC50 of above about 7)
O=c1cc2n(cc1O)CCN(CC1CCCCCCC1)C2 [Example 26, 2-(cyclooctylmethyl)-7-hydroxy-1,2,3,4-tetrahydro-8H-pyrido[1,2-a]pyrazin-8-one] | ++ (two plus signs (++) is associated with a pIC50 of from about 6 to 7)
Cc1cccc(C)c1CN1CCn2cc(O)c(=O)cc2C1 [Example 27, 2-(2,6-dimethylbenzyl)-7-hydroxy-1,2,3,4-tetrahydro-8H-pyrido[1,2-a]pyrazin-8-one] | +++ (three plus signs (+++) is associated with a pIC50 of above about 7)
